From PubChem BioAssay (NCI) come the findings set out here.

Some test systems named below: HOP-92 NSCLC; MOLT-4 leukemia; OVCAR-4 ovarian; MDA-N; COLO 205 colon; TK-10 renal; IGROV1 ovarian; M14 melanoma; RPMI-8226 leukemia; CCRF-CEM leukemia; OVCAR-5 ovarian; T-47D breast; HOP-62 NSCLC; UACC-257 melanoma; MDA-MB-435; U251 CNS; NCI-H522 lung; BT-549 breast; CAKI-1 renal.
Holding throughout (assay): NCI-60 cell line screen, 48 h

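How tested: cells in 96-well plates exposed to compound for 48 hours at five concentrations. TGI denotes the concentration required for complete inhibition of growth.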

On to `O=C(O)C1(Cc2ccccc2)Cc2cc3c(cc2C1)CCC3`, for which the TGI was 94 µM in the experiment with HOP-92 NSCLC; over 100 µM in the experiment with MOLT-4 leukemia; over 100 µM with OVCAR-4 ovarian; over 100 µM in the experiment with MDA-N; over 100 µM with COLO 205 colon; over 100 µM with TK-10 renal. The TGI in the experiment on IGROV1 ovarian, with M14 melanoma, in the experiment on RPMI-8226 leukemia, with CCRF-CEM leukemia, with OVCAR-5 ovarian and with T-47D breast was over 100 µM throughout. For the same compound, the TGI in the experiment with HOP-62 NSCLC, in the experiment with UACC-257 melanoma, with MDA-MB-435, with U251 CNS, with NCI-H522 lung and in the experiment with BT-549 breast was over 100 µM in each case.
With `COc1ccc2[nH]c3c(c2c1)CC(=O)N1CCCC(CC3O)C1` (centres undefined), the TGI in the experiment on HOP-92 NSCLC, in the experiment on OVCAR-4 ovarian, in the experiment on MDA-N, in the experiment on COLO 205 colon, in the experiment with TK-10 renal and in the experiment with IGROV1 ovarian was over 100 µM in each case. Further, the TGI in the experiment with RPMI-8226 leukemia, in the experiment with T-47D breast, with UACC-257 melanoma, in the experiment on CAKI-1 renal, in the experiment on MDA-MB-435 and in the experiment on U251 CNS was over 100 µM throughout. In addition, the TGI in the experiment with NCI-H522 lung and with BT-549 breast was over 100 µM in each case.
In the case of `O=C(NNC1=NCCCN1)c1ccco1`, the TGI with HOP-92 NSCLC, in the experiment with MOLT-4 leukemia, in the experiment with OVCAR-4 ovarian, in the experiment with MDA-N, with COLO 205 colon and in the experiment on TK-10 renal was over 100 µM each time. The TGI with IGROV1 ovarian, in the experiment with M14 melanoma, with RPMI-8226 leukemia, in the experiment on CCRF-CEM leukemia, in the experiment with OVCAR-5 ovarian and in the experiment with T-47D breast was over 100 µM in each case. Also, the TGI in the experiment with HOP-62 NSCLC, in the experiment on UACC-257 melanoma, with MDA-MB-435, in the experiment with U251 CNS, in the experiment with NCI-H522 lung and with BT-549 breast was over 100 µM each time.
As for `CCCCCCCCCCCCCCCCCCNc1ccn(C2OC(CO)C(OP(=O)(O)OCC(O)COP(=O)(O)OCC3OC(n4cc(F)c(NCCCCCCCCCCCCCCCCCC)nc4=O)CC3O)C2O)c(=O)n1` (centres undefined), the TGI in the experiment on HOP-92 NSCLC, in the experiment on OVCAR-4 ovarian, in the experiment on MDA-N, in the experiment on COLO 205 colon, with TK-10 renal and with IGROV1 ovarian was over 50 µM throughout. The TGI with M14 melanoma, in the experiment with RPMI-8226 leukemia, in the experiment with OVCAR-5 ovarian, in the experiment on T-47D breast, with HOP-62 NSCLC and with UACC-257 melanoma was over 50 µM in each case. In addition, the TGI with CAKI-1 renal, in the experiment with MDA-MB-435, in the experiment on U251 CNS, with NCI-H522 lung and with BT-549 breast was over 50 µM throughout.
Turning to `N#Cc1ccc(-c2nc3c(N)nc(-c4ccccc4)nc3o2)cc1`, the TGI in the experiment on HOP-92 NSCLC, with MOLT-4 leukemia, in the experiment on OVCAR-4 ovarian, with MDA-N, in the experiment on COLO 205 colon and in the experiment on TK-10 renal was over 100 µM each time. The TGI in the experiment on IGROV1 ovarian, in the experiment on M14 melanoma, in the experiment on RPMI-8226 leukemia, in the experiment on OVCAR-5 ovarian, in the experiment on T-47D breast and in the experiment with HOP-62 NSCLC was over 100 µM each time. In addition, the TGI is over 100 µM with UACC-257 melanoma; over 100 µM in the experiment with CAKI-1 renal; over 100 µM in the experiment on MDA-MB-435; 27.7 µM in the experiment on U251 CNS; over 100 µM with NCI-H522 lung; over 100 µM in the experiment on BT-549 breast.
Turning to `Cc1c2c(nc3ccccc13)C(=O)c1cccnc1C2=O`, the TGI in the experiment with HOP-92 NSCLC is over 100 µM; in the experiment with MOLT-4 leukemia it was 64.7 µM; in the experiment with OVCAR-4 ovarian it was over 100 µM; in the experiment with MDA-N it was 3.16 µM; with COLO 205 colon, 48.7 µM; with TK-10 renal, over 100 µM. Moreover, the TGI is over 100 µM in the experiment on IGROV1 ovarian; 48.8 µM in the experiment with M14 melanoma; over 100 µM with RPMI-8226 leukemia; over 100 µM with CCRF-CEM leukemia; over 100 µM with OVCAR-5 ovarian; 87.8 µM in the experiment on T-47D breast. In addition, the TGI is over 100 µM in the experiment with HOP-62 NSCLC; 27.2 µM in the experiment with UACC-257 melanoma; 3.2 µM with MDA-MB-435; over 100 µM in the experiment on U251 CNS; 47.8 µM in the experiment on NCI-H522 lung; over 100 µM in the experiment on BT-549 breast.
Take `O=[N+]([O-])c1cccc(-c2ncc3c(n2)-c2ccccc2C3)c1`: the TGI in the experiment with HOP-92 NSCLC, with MOLT-4 leukemia, with OVCAR-4 ovarian, in the experiment on MDA-N, in the experiment on COLO 205 colon and with TK-10 renal was over 100 µM in each case. The TGI in the experiment on IGROV1 ovarian, with M14 melanoma, in the experiment with RPMI-8226 leukemia, in the experiment with CCRF-CEM leukemia, in the experiment with OVCAR-5 ovarian and in the experiment on T-47D breast was over 100 µM throughout. Moreover, the TGI in the experiment with UACC-257 melanoma, in the experiment on CAKI-1 renal, with MDA-MB-435, in the experiment with U251 CNS, in the experiment with NCI-H522 lung and with BT-549 breast was over 100 µM in each case.
As for `CC1(C)C2CCC1(C)C(OC(=O)/C=C/C(=O)OC1CC3CCC1(C)C3(C)C)C2` (centres undefined), the TGI in the experiment with HOP-92 NSCLC was over 100 µM; in the experiment on MOLT-4 leukemia it was 45.9 µM; in the experiment on OVCAR-4 ovarian, over 100 µM; with MDA-N, over 100 µM; with COLO 205 colon, over 100 µM; in the experiment on TK-10 renal, over 100 µM. For the same compound, the TGI is over 100 µM in the experiment on IGROV1 ovarian; over 100 µM in the experiment on M14 melanoma; 31.1 µM in the experiment with CCRF-CEM leukemia; over 100 µM in the experiment on OVCAR-5 ovarian; over 100 µM with T-47D breast; over 100 µM with HOP-62 NSCLC. The TGI with UACC-257 melanoma, in the experiment on CAKI-1 renal, in the experiment on MDA-MB-435, with U251 CNS, in the experiment with NCI-H522 lung and with BT-549 breast was over 100 µM throughout.
